Measured values as given in PubChem BioAssay (NCI).
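Results reflect a 48-hour exposure of cells in 96-well plates to compound at five concentrations. Definition used: TGI = concentration required for complete inhibition of growth.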

Columns and labels:
Test in all cases: NCI-60 cell line screen, 48 h
OVCAR-8 ovarian = tested on: OVCAR-8 ovarian
786-0 renal = tested on: 786-0 renal
EKVX NSCLC = tested on: EKVX NSCLC
A549 NSCLC = tested on: A549 NSCLC
A498 renal = tested on: A498 renal
M14 melanoma = tested on: M14 melanoma
NCI/ADR-RES ovarian = tested on: NCI/ADR-RES ovarian
MALME-3M melanoma = tested on: MALME-3M melanoma
HS 578T breast = tested on: HS 578T breast
SK-MEL-5 melanoma = tested on: SK-MEL-5 melanoma
CAKI-1 renal = tested on: CAKI-1 renal
HCC-2998 colon = tested on: HCC-2998 colon
KM12 colon = tested on: KM12 colon
T-47D breast = tested on: T-47D breast
LOX IMVI melanoma = tested on: LOX IMVI melanoma
NCI-H226 lung = tested on: NCI-H226 lung
HL-60(TB) leukemia = tested on: HL-60(TB) leukemia
OVCAR-4 ovarian = tested on: OVCAR-4 ovarian
K-562 leukemia = tested on: K-562 leukemia
BT-549 breast = tested on: BT-549 breast
HOP-62 NSCLC = tested on: HOP-62 NSCLC
SK-MEL-2 melanoma = tested on: SK-MEL-2 melanoma
MDA-MB-231 breast = tested on: MDA-MB-231 breast
SNB-75 CNS = tested on: SNB-75 CNS
COLO 205 colon = tested on: COLO 205 colon
ACHN renal = tested on: ACHN renal
SK-MEL-28 melanoma = tested on: SK-MEL-28 melanoma
SR leukemia = tested on: SR leukemia
CCRF-CEM leukemia = tested on: CCRF-CEM leukemia
NCI-H460 lung = tested on: NCI-H460 lung
RXF 393 renal = tested on: RXF 393 renal
HOP-92 NSCLC = tested on: HOP-92 NSCLC
DU-145 prostate = tested on: DU-145 prostate
SF-295 CNS = tested on: SF-295 CNS
UO-31 renal = tested on: UO-31 renal
SNB-19 CNS = tested on: SNB-19 CNS
SN12C renal = tested on: SN12C renal
RPMI-8226 leukemia = tested on: RPMI-8226 leukemia
NCI-H23 lung = tested on: NCI-H23 lung
PC-3 prostate = tested on: PC-3 prostate
MOLT-4 leukemia = tested on: MOLT-4 leukemia
HT29 colon = tested on: HT29 colon
SF-539 CNS = tested on: SF-539 CNS
MCF7 breast = tested on: MCF7 breast
OVCAR-3 ovarian = tested on: OVCAR-3 ovarian
MDA-MB-435 = tested on: MDA-MB-435
SF-268 CNS = tested on: SF-268 CNS
SK-OV-3 ovarian = tested on: SK-OV-3 ovarian
UACC-62 melanoma = tested on: UACC-62 melanoma
HCT-116 colon = tested on: HCT-116 colon
TK-10 renal = tested on: TK-10 renal
SW-620 colon = tested on: SW-620 colon
UACC-257 melanoma = tested on: UACC-257 melanoma
OVCAR-5 ovarian = tested on: OVCAR-5 ovarian
U251 CNS = tested on: U251 CNS
NCI-H522 lung = tested on: NCI-H522 lung
HCT-15 colon = tested on: HCT-15 colon
IGROV1 ovarian = tested on: IGROV1 ovarian

Measured: TGI

CC(=O)C1=C(O)/C(=C\c2ccco2)OC1=O
> 10 µM: all assays above
